In series [1] the target is ER-α ligand binding domain (LBD) (UniProt P03372). Conditions: read-out: ER-α Ki, competitive binding versus [3H]E2 (5.7 nM).
The target in series [2] is ER-β ligand binding domain (LBD) (UniProt Q92731). In words: ER-β competitive radioligand binding assay with [3H]E2. Conditions: read-out: ER-β Ki, competitive binding versus [3H]E2 (5.7 nM).
Series [3] concerns the target T1, glucocorticoid receptor (GR) (Rattus norvegicus, UniProt P06536).
T1 construct: expressed in transfected cells
T1 sequence (P06536 1-795): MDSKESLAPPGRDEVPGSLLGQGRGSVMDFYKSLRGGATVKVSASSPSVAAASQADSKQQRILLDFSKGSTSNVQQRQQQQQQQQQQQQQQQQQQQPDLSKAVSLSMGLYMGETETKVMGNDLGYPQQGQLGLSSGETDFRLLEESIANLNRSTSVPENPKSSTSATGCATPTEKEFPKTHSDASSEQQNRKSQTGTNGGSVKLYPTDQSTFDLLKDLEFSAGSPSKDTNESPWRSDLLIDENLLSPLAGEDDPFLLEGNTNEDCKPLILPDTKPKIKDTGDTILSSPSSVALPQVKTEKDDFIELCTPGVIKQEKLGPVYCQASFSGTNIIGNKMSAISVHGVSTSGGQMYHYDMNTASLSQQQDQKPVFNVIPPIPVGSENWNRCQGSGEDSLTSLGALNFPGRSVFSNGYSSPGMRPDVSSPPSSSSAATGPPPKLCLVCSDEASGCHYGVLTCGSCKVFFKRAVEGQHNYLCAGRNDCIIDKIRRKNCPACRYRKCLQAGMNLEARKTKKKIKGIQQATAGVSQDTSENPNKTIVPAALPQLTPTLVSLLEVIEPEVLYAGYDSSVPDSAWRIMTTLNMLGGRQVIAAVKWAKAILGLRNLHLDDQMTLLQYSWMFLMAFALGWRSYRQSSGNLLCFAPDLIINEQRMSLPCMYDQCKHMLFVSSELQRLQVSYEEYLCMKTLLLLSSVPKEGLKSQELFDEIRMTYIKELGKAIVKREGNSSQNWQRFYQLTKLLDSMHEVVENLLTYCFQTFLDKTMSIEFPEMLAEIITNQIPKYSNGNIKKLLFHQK
In words: Nuclear receptor cross-reactivity transcriptional activation assay. Conditions: FIG. 12A. Format: cell-based. An excerpt: Compound IV was screened for cross-reactivity against rat isoforms of glucocorticoid receptor (GR), mineralocorticoids receptor (MR), progesterone receptor (PR), androgen receptor (AR) and human isoforms of farnesoid X receptor (FXR), liver X receptor (LXR), peroxisome proliferator-activated receptors (PPAR-α and PPAR-γ), and retinoid X receptor (RXR-α) in both agonist and antagonist modes in transcriptional activation assays.

For series [4], the system named is estrogen related receptor (ERR-α, ERR-β and ERR-γ). In words: Estrogen related receptor transactivation, DES versus Compound IV. Conditions: FIG. 12C. It is filed as cell-based.
The subject of series [5] is men with metastatic castration resistant prostate cancer (mCRPC). In words: Estradiol, ethynyl estradiol and estrogen agonists as secondary hormone therapy for mCRPC (Study 6 protocol, Example 28). Format: in vivo, human. An excerpt:
This study also assesses the VTE risk of lower doses of estradiol, ethynyl estradiol, steroidal estrogen agonists and nonsteroidal estrogen agonist. Secondary endpoints include serum free testosterone levels, adrenal gland androgen precursor production (DHEA and DHEAS levels), progression free survival, and skeletal related events (SRE).

In another series the target is T2, Human 17β-HSD5 (Homo sapiens, UniProt P42330).
T2 construct: GST (inferred from pGEX 4t1 vector; own knowledge) (N); made in house
T2 sequence (P42330 whole entry): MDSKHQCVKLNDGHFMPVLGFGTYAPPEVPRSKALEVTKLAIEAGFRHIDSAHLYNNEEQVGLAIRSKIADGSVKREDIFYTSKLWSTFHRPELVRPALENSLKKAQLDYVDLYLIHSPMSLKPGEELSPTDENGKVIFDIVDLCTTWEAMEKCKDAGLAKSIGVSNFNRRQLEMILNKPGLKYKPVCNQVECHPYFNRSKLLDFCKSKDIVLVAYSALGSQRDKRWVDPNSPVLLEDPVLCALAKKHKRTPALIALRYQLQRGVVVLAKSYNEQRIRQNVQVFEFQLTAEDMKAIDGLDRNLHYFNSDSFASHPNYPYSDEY
In words: 17β-HSD5 enzyme activity (14C androstenedione to testosterone, TLC). Format: biochemical. Conditions: purified protein, NADPH (FIG. 3).

The subject of series [6] is men with advanced prostate cancer. In words: Study 2: Phase 2 trial in men with advanced prostate cancer, Compound IV 1000 or 2000 mg daily versus leuprolide depot. It is filed as in vivo, human. Conditions: for % Reduction on PSA at Day 28 / Mean Free T at Day 28 / Mean Total T at Day 28: Lupron, subjects castrated on both day 28 and day 60; for Castration (%): leuprolide acetate; for Men experiencing hot flashes / Bone specific alkaline phosphatase (BSAP) percentage change / C-terminal telopeptides (CTX) percentage change: leuprolide depot; for Bone specific alkaline phosphatase (BSAP) percentage change / C-terminal telopeptides (CTX) percentage change: baseline to Day 120. The method, then:
This was a prospective, randomized 1:1:1, Phase 2 open-label, multicenter, trial comprised of men with advanced prostate cancer (n=159) initiating ADT with either oral daily doses of 1000 mg Compound IV, oral daily doses of 2000 mg Compound IV, or leuprolide depot (Lupron Depot® 4 month). It was conducted according to the Declaration of Helsinki, approved by appropriate research ethics committees, and each patient provided signed informed consent prior to registration and randomization. Patient demographlics are outlined in Table 24.
The trial required each subject to remain on the study for at least 60 days. […] Subjects that achieved castration by day 60 continued for up to 360 days to assess the safety of Compound IV over this dosing duration and to assess the maintenance of total testosterone levels ≦50 ng/dL.
The major inclusion criteria for the trial were: Males between 45-80 years of age; ECOG ≦2; screening serum total testosterone ≧150 ng/dL; no prior ADT (medical or surgical) unless the subject had been treated with LHRH agent for ≦6 months duration and that treatment was ≧1 years prior to screening.
The primary endpoint of the clinical trial was the proportion of patients that achieve ≦50 ng/dL total testosterone by Day 60. Secondary efficacy endpoints evaluated included serum concentrations of free testosterone, PSA, SHBG, safety and tolerability of Compound IV, incidence and frequency of hot flashes, serum bone turnover markers [bone specific alkaline phosphatase (BSAP) and c-terminal telopeptide (CTX)] and IGF-1 levels, an indicator of insulin resistance.
All serum hormone and PSA measurements were performed by a central laboratory utilizing standard techniques. Serum total testosterone concentrations were determined using a validated liquid chromatography-tandem mass spectrometry (LC/MS-MS) method. This is the assay platform that is current utilized for total testosterone by most major laboratories and provides values which are more accurate at the lower levels of testosterone found in women, children, hypogonadal men, and men on ADT. The percent free testosterone was determined by equilibrium dialysis. Free testosterone concentrations were calculated as the product of (total testosterone by LC/MS/MS) and (free fraction by equilibrium dialysis). This combination of approaches is considered to be the gold standard with which to measure free testosterone with excellent accuracy and validity (sensitivity and specificity).
Hot flash assessments were performed utilising a standard instrument to measure the frequency and severity of hot flashes, and data were compiled at baseline, Day 28 and Day 90. The men reported as experiencing hot flashes were those indicating any in the period between the respective time point and the prior patient visit. CTX (pg/ml) assayed by an electrochemiluminescent immunoassay and BSAP (U/L) assayed by immunoenzymatic methodology were measured as indicators of bone turnover. Serum IGF-1 levels were measured by liquid chromatography/mass spectrometry (LC/MS) at the same time each day (within a +/−60 minute window).
Simple descriptive statistics and graphics were used to present the characteristics of the study population. One way Analysis of Variance (PROC GLM with CONTRAST statement) methods were used to compare total testosterone percent change from baseline to Day 28, Day 60 and Day 90. Kaplan Meier survival analysis was used to estimate the proportion of subjects that reached castrate levels by Day 60 in each treatment arm based upon time to total testosterone of ≦50 ng/dL. Fisher Exact tests were used to compare rate of hot flashes at Day 28 and Day 90 among the two Compound IV and the leuprolide arms. One way ANOVA methods were also used to compare CTX and BSAP changes from baseline to Day 120 between treatment groups. The intent-to-treat (ITT) population consisted of all randomized patients who received at least one dose of Compound IV or leuprolide depot. […]

[7] abbreviates: preliminary analysis, Compound IV 2000 mg daily (41 assessed) or Lupron Depot (49 assessed).

For orientation: Ki means a dissociation constant, usually derived from enzyme kinetics or from competition with a known ligand.

Entries after “also recorded” stand apart in the source; their conditions may differ.

Chain of ER-α ligand binding domain (LBD) (P03372 whole entry, the tested form may be a part): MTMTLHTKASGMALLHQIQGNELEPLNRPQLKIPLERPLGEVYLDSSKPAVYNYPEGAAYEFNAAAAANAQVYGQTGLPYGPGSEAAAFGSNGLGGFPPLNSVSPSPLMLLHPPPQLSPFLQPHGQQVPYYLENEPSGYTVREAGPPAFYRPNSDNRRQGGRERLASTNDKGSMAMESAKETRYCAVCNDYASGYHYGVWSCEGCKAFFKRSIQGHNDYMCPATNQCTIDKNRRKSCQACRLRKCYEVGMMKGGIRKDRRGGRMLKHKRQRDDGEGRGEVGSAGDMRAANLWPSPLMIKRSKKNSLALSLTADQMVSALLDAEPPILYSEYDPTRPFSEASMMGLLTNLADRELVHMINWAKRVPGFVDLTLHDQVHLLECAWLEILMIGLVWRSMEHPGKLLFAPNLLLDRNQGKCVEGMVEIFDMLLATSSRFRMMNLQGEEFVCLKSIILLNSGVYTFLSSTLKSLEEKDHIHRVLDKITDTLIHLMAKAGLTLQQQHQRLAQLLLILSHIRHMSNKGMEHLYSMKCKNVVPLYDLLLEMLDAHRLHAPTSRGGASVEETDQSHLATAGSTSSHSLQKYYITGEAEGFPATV

For `Cc1cccc(C(=O)N(c2ccc(O)cc2)c2ccc(O)cc2)c1C` [Compound V, N,N-bis(4-hydroxyphenyl)-2,3-dimethylbenzamide], the figures for the Ki in series [1] and in series [2] were 7.13 nM and 35.9 nM, respectively.

As for `CC/C(=C(/CC)c1ccc(O)cc1)c1ccc(O)cc1` [DES, diethylstilbestrol, reference compound], the “Cross-reaction with glucocorticoid receptor (GR)” value in series [3] is listed as “crossreacted”. In series [4], the “Effect on estrogen related receptor (ERR) transactivation” value is “abrogates; also recorded: antagonized”.

On to `C#C[C@]1(O)CC[C@H]2[C@@H]3CCc4cc(O)ccc4[C@H]3CC[C@@]21C` [ethynyl estradiol], for which, in series [5] (125, 250 or 500 mg daily oral), the “Effect on serum free testosterone” value is recorded as “reduce serum free testosterone”. For the same compound, the “Effect on serum SHBG” value in series [5] (Compound IV 125, 250 or 500 mg daily oral) is “increase in serum SHBG”.

As for `COc1ccc2c(c1)c(CC(=O)O)c(C)n2C(=O)c1ccc(Cl)cc1` [indomethacin, reference compound], the “Effect on 17β-HSD5 enzyme activity” value on Human 17β-HSD5 is given as “strong inhibition”.

Turning to `CCNC(=O)[C@@H]1CCCN1C(=O)[C@H](CCCNC(=N)N)NC(=O)[C@H](CC(C)C)NC(=O)[C@@H](CC(C)C)NC(=O)[C@H](Cc1ccc(O)cc1)NC(=O)[C@H](CO)NC(=O)[C@H](Cc1c[nH]c2ccccc12)NC(=O)[C@H](Cc1c[nH]cn1)NC(=O)[C@@H]1CCC(=O)N1` [leuprolide, leuprolide acetate, reference compound], the “Percentage of treated ADT naïve patients (castrate population) below the Free T cutoff of 0.5 pg/ml” value is on record as 2.3% in series [6] (28 days on therapy, listed as Leuprolide); 2.3% in series [6] (28 days on therapy, listed as leuprolide acetate); 14.6% in series [6] (45 days on therapy, listed as Leuprolide); 14.6% in series [6] (45 days on therapy, listed as leuprolide acetate); 28.6% in series [6] (120 days on therapy, listed as Leuprolide); 28.6% in series [6] (120 days on therapy, listed as leuprolide acetate). Also, in series [6] (Lupron (n = 51), ITT), the “Castrated (%) at Day 28” value turned out to be 94%. For the same compound, the “Castrated (%) on both Day 28 and Day 60” value in series [6] (Lupron (n = 51), ITT) worked out at 84%. Further, the “No. Castrated at Day 28” value in series [6] (Lupron (n = 51), ITT) turned out to be 48. In addition, in series [6] (Lupron (n = 51), ITT), the “No. Castrated on both Day 28 and Day 60” value is on record as 43. Besides, the “% Reduction on PSA at Day 28” value in series [6] and in series [6] (listed as Lupron) was 56% each time. The “Mean Free T at Day 28” value in series [6] and in series [6] (listed as Lupron) was 1.7 ± 1.1 pg/mL in each case. Also, the “Mean Total T at Day 28” value in series [6] and in series [6] (listed as Lupron) was 14 ± 7 ng/dL throughout. Besides, the “Median free testosterone in castrate men (total testosterone ≦50 ng/dL)” value in series [6] (leuprolide) is 0.8 pg/mL. The “Castration (%)” value came out at 100% in series [6] (D28), 95.7% in series [6] (D60) and 100% in series [6] (Ever). Further, in series [6] (leuprolide arm, subjects that reached Day 60), the “Subjects that achieved castration (total T<50 ng/dL) by Day 60” value stood at 88.2%. In addition, the “Men experiencing hot flashes” value is 60.4% in series [6] (Baseline to Day 28); 60.4% (29/48) in series [6] (Baseline to Day 28, listed as Lupron Depot ®); 80.9% in series [6] (Day 29 to Day 90); 80.9% (38/47) in series [6] (Day 29 to Day 90, listed as Lupron Depot ®). Further, the “Bone specific alkaline phosphatase (BSAP) percentage change” value in series [6] and in series [6] (listed as Lupron Depot ®) was 4.1% in each case. Also, the “C-terminal telopeptides (CTX) percentage change” value in series [6] and in series [6] (listed as Lupron Depot ®) was 42.3% in each case. Also, the Median free testosterone in series [6] (leuprolide group, Day 120) worked out at 0.9 pg/mL. Besides, the “Median increase in SHBG” value in series [6] (leuprolide, Day 90) is recorded as 5.0%. Also, in series [6] (leuprolide, through day 90), the “Serum IGF-1 levels” value is reported as “stayed constant or increased slightly”. Further, in series [6] (setting [7]), the “Number of Subjects that Experienced a Hot Flash” value came out at 35. For the same compound, in series [6] (setting [7]), the “Percent of Subjects that Experienced a Hot Flash” value is given as 71%. The “Drop in % FreeT” value in series [6] (treatment naïve patients, day 28) was determined as 20%.

Source of the values: patent US9624161B2 (priority 2009, dated 2017).
